# Experimental data: patent publication US20200138764A1, “METHODS AND DEVICES FOR ACTIVATING ADIPOSE TISSUE” (The Procter & Gamble Company, priority 2018, published 2020)
# Molecular target: human TRPM8
# Assay: TRPM8 Protocol-FLIPR Assay (intracellular Ca2+)
# Type: cell-based
# Conditions: HEK-293 cells stably transfected with human TRPM8, Fluo-4 AM, relative to benchmark agonist WS-5
# Description: To determine whether TRPM8 is activated, the intracellular calcium ion (Ca^2+) level was measured from transfected cells with the TRPM8 receptor sequence (SEQ ID NO: 1). HEK-293 (human embryonic kidney) cells stably transfected with human TRPM8 were grown in 15 mL growth medium (high glucose DMEM (Dulbecco's Modification of Eagle's Medium) supplemented with 10% FBS (fetal bovine serum), 100 μg/mL penicillin/streptomycin, 5 μg/mL blasticindin, and 100 μg/mL zeocin) in a 75 cm^2 flask for 3 days at 37° C. in a mammalian cell culture incubator (Forma Scientific Model 3110, Marietta, Ohio) set at 5% CO2. Cells were detached with addition of 2 mL of trypsin-EDTA buffer (GIBCO® 25200, Invitrogen, Grand Island, N.Y.) for about 2-3 min. Trypsin was inactivated by addition of 8 mL growth medium. Cells were transferred to a 50 mL tube and centrifuged at 850 rpm for 3 minutes to remove medium. After centrifugation, a pellet of cells was formed in the bottom of the tube separating them from the supernatant solution. The supernatant was discarded and the cell pellet was suspended in 1 mL of fresh growth medium to which 5 μL (12.5 μg) of Fluo-4 AM (Molecular Probes, Inc., Eugene, Oreg.) calcium indicator was added and incubated for 30 min with gentle shaking. Fluo-4 AM is a fluorescent dye used for quantifying cellular Ca^2+ concentrations in the 100 nM to 1 μM range. At the end of 30 minutes, 45 mL of assay buffer (1×HBSS (Hank's Balanced Salt Solution), 20 mM HEPES (4-(2-Hydroxyethyl)-1-piperazineethanesulfonic acid)) was added to wash cells and the resulting mixture was then centrifuged at 850 rpm for 3 minutes at 20° C. to remove excess buffer and Fluo-4 AM calcium indicator.
# The pelleted cells were re-suspended in 10 mL assay buffer and 90 μL aliquots (˜50,000 cells) per well delivered to a 96-well assay plate containing 10 μL of test compounds (1 mM in assay buffer, final concentration 100 μM) or buffer control and incubated at room temperature for 30 minutes. After 30 minutes, a plate (Falcon 353219, Corning Corning N.Y.) was placed into a fluorometric imaging plate reader (FLIPR384 from Molecular Devices, Sunnyvale, Calif.) and basal fluorescence recorded (excitation wave length 488 nm and emission wave length 510 nm). Then 20 μL of 100 mM of TRPM8 agonist WS5 coolant in the assay buffer was added and fluorescence recorded. For determining the direct effect of test compounds on TRPM8, fluorescence was measured immediately after addition of each compound (TABLE 1). Additional discussion of the FLIPR method can be found in Smart et al., Characterization using FLIPR of human vanilloid VR1 receptor pharmacology, European Journal of Pharmacology 417, 51-58 (2001) and Liu et al., Development and validation of a platelet calcium flux assay using a fluorescent imaging plate reader, Analytical Biochemistry 357, 216-224 (2006).
# The magnitude of the fluorescence of the active-treated cells was compared to the magnitude of the fluorescence from a benchmark agonist (WS-5), as described above. The percentage of fluorescence as a function of active dose was plotted and a sigmoidal curve was generated. Curve fitting from this dose-response curve yielded the value for TRPM8 IC50 in nM.
# TRPM8 activation was determined by measuring intracellular calcium ion (Ca^2+) level from transfected cells with the TRPM8 receptor gene, as described in EXAMPLE 1, the results of which are shown in TABLE 1. IC50 values are provided in column 3 of TABLE 1, which measured the concentration of activating compound needed to reduce intracellular [Ca^2+] by 50%. […]
row,Structure (SMILES),IC50 [µM]
1,CC(C)[C@@H]1CC[C@@H](C)C[C@H]1C(=O)NC[C@@H](NC(=O)[C@H](C)N)c1ccccc1 [Formula III],0.002
2,CC1CCC(C(C)C)C(O)C1 (stereo not drawn) [Menthol],7
3,CCOC(=O)CNC(=O)[C@@H]1C[C@H](C)CC[C@H]1C(C)C [WS-5],2
